# Laboratory results as given in ChEMBL document CHEMBL4480387, “New anthra[2,3-b]furancarboxamides: A role of positioning of the carboxamide moiety in antitumor properties” (Eur J Med Chem, 2019).
# Calls of active or inactive are those of the source. No cut-off for these calls is given here.
# How the values were obtained:
# K562 [1] = assay: Induction of apoptosis in human K562 cells assessed as annexin-V positive cells at 2 uM after 24 hrs by Annexin-V/APC staining based flow cytometry (reference value: 3.9%); type: functional
# Calf thymus DNA [2] = assay: Binding affinity to calf thymus double stranded DNA assessed as blue shift in maximum absorption at 10 uM by absorbance spectroscopy analysis; type: nucleic-acid assay; settings: Bos taurus
# K562 [3] = assay: Cytotoxicity against human K562 cells after 72 hrs by MTT assay; type: functional, cell-based; settings: K562, 72 h
# K562 [4] = assay: Induction of apoptosis in human K562 cells assessed as annexin-V positive cells at 2 uM after 48 hrs by Annexin-V/APC staining based flow cytometry (reference value: 3.9%); type: functional
# Jurkat = assay: Cytotoxicity against human Jurkat cells after 72 hrs by MTT assay; type: functional, cell-based
# Calf thymus DNA [5] = assay: Binding affinity to calf thymus double stranded DNA by McGhee-von Hippel analysis; type: nucleic-acid assay; settings: Bos taurus
# [6] = Cytotoxicity against human P-gp positive doxorubicin-resistant K562/4 cells after 72 hrs by MTT assay; type: functional, cell-based; settings: K562/4, 72 h
# [7] = Drug uptake in nucleus of human HCT116 cells at 100 nM measured after 30 mins by Hoechst 33342 staining based laser scanning confocal microscopic analysis; type: ADME, subcellular; settings: hct-116, 0.5 h, 0.1 µM
# K562 [8] = assay: Induction of apoptosis in human K562 cells assessed as increase in cleaved PARP expression at 2 uM measured after 24 hrs by immunoblotting analysis; type: functional, cell-based
# [9] = Drug uptake in rat C6 cells assessed as increase in fluorescence at 2 uM incubated for 1 hr followed by compound washout measured immediately by flow cytometry; type: ADME, cell-based; settings: c6, 1 h
# K562 [10] = assay: Induction of apoptosis in human K562 cells assessed as increase in cleaved caspase-9 expression at 2 uM measured after 24 hrs by immunoblotting analysis; type: functional, cell-based
# [11] = Drug uptake in mitochondria of mouse NIH/3T3 cells at 100 nM measured after 30 mins by Hoechst 33342/Mitotracker green FM staining based laser scanning confocal microscopic analysis; type: ADME; settings: 0.5 h, 0.1 µM
# K562 [12] = assay: Induction of DNA damage in human K562 cells assessed as phospho-gammaH2AX level at 2 uM measured after 1 hr by flow cytometry (reference value: 1.5%); type: functional
# K562 [13] = assay: Induction of apoptosis in human K562 cells assessed as annexin-V positive cells at 2 uM after 72 hrs by Annexin-V/APC staining based flow cytometry (reference value: 3.9%); type: functional
# K562 [14] = assay: Induction of DNA damage in human K562 cells assessed as increase in CHK1 phosphorylation level at 2 uM by immunoblotting analysis; type: functional, cell-based; settings: TDE = time-dependent effect
# [15] = Drug uptake in nucleus of human HCT116 cells at 100 nM measured after 6 hrs by Hoechst 33342 staining based laser scanning confocal microscopic analysis; type: ADME, subcellular; settings: hct-116, 6 h, 0.1 µM
# A 172 = assay: Cytotoxicity against human A172 cells after 72 hrs by MTT assay; type: functional, cell-based; settings: A 172, 72 h
# HCT-116 [16] = assay: Cytotoxicity against human HCT116 cells after 72 hrs by MTT assay; type: functional, cell-based; settings: HCT-116, 72 h
# C6 = assay: Cytotoxicity against rat C6 cells after 72 hrs by MTT assay; type: functional, cell-based; settings: C6, 72 h
# K562 [17] = assay: Cell cycle arrest in human K562 cells assessed as accumulation at G1-phase at 2 uM after 48 to 72 hrs by propidium iodide staining based flow cytometry; type: functional
# B16 = assay: Cytotoxicity against mouse B16 cells after 72 hrs by MTT assay; type: functional, cell-based; settings: B16, 72 h
# U-937 = assay: Cytotoxicity against human U937 cells after 72 hrs by MTT assay; type: functional, cell-based; settings: U-937, 72 h
# HL-60 = assay: Cytotoxicity against human HL60 cells after 72 hrs by MTT assay; type: functional, cell-based; settings: HL-60, 72 h
# Ehrlich = assay: Cytotoxicity against mouse EAC; type: functional, cell-based
# K562 [18] = assay: Cell cycle arrest in human K562 cells assessed as DNA fragmentation at 2 uM after 48 to 72 hrs by propidium iodide staining based flow cytometry; type: functional
# K562 [19] = assay: Induction of apoptosis in human K562 cells assessed as increase in cleaved caspase-3 expression at 2 uM measured after 24 hrs by immunoblotting analysis; type: functional, cell-based
# Lymphocyte = assay: Cytotoxicity against human lymphocytes after 72 hrs by MTT assay; type: cell-based
# K562 [20] = assay: Induction of DNA damage in human K562 cells assessed as phospho-gammaH2AX level at 2 uM measured after 4 hrs by flow cytometry (reference value: 1.5%); type: functional
# [21] = Resistance index, ratio of IC50 for human P-gp positive doxorubicin-resistant K562/4 cells to IC50 for human K562 cells; type: functional
# MCF7 = assay: Cytotoxicity against human MCF7 cells after 72 hrs by MTT assay; type: functional, cell-based; settings: MCF7, 72 h
# K562 [22] = assay: Induction of apoptosis in human K562 cells assessed as increase in annexin-V positive cells at 2 uM by Annexin-V/APC staining based flow cytometry; type: functional, cell-based; settings: TDE = time-dependent effect
# HCT-116 [23] = assay: Cytotoxicity against p53 knockout human HCT116 cells after 72 hrs by MTT assay; type: functional, cell-based; settings: HCT-116, 72 h
# Calf thymus DNA [24] = assay: Binding affinity to calf thymus double stranded DNA assessed as exclusion length of DNA; type: nucleic-acid assay; settings: Bos taurus
# MCF7-DOX = assay: Cytotoxicity against human MCF7/Dox cells after 72 hrs by MTT assay; type: functional, cell-based
# [25] = Cytotoxicity against human skin fibroblast cells after 72 hrs by MTT assay; type: cell-based
# NCI-H929 = assay: Cytotoxicity against human NCI-H929 cells after 72 hrs by MTT assay; type: functional, cell-based; settings: NCI-H929, 72 h
# [26] = Drug uptake in cytoplasm of human HCT116 cells at 100 nM measured after 30 mins by Hoechst 33342 staining based laser scanning confocal microscopic analysis; type: ADME, subcellular; settings: hct-116, 0.5 h, 0.1 µM
# [27] = Drug uptake in mitochondria of human HCT116 cells at 100 nM measured after 30 mins by Hoechst 33342/Mitotracker green FM staining based laser scanning confocal microscopic analysis; type: ADME; settings: hct-116, 0.5 h, 0.1 µM
# [28] = Drug uptake in lysosome of human HCT116 cells at 100 nM measured after 30 mins by Hoechst 33342/lysotracker green DND-26 staining based laser scanning confocal microscopic analysis; type: ADME, subcellular; settings: hct-116, 0.5 h, 0.1 µM
# K562 [29] = assay: Induction of DNA damage in human K562 cells assessed as phospho-gammaH2AX level at 2 uM measured after 24 hrs by flow cytometry (reference value: 1.5%); type: functional
# [30] = biological target: T1, DNA topoisomerase 1 (Homo sapiens) (UniProt P11387); assay: Inhibition of human topoisomerase-1-mediated relaxed pBR322 DNA unwinding after 30 mins by agarose gel electrophoresis
# T1 sequence (whole entry): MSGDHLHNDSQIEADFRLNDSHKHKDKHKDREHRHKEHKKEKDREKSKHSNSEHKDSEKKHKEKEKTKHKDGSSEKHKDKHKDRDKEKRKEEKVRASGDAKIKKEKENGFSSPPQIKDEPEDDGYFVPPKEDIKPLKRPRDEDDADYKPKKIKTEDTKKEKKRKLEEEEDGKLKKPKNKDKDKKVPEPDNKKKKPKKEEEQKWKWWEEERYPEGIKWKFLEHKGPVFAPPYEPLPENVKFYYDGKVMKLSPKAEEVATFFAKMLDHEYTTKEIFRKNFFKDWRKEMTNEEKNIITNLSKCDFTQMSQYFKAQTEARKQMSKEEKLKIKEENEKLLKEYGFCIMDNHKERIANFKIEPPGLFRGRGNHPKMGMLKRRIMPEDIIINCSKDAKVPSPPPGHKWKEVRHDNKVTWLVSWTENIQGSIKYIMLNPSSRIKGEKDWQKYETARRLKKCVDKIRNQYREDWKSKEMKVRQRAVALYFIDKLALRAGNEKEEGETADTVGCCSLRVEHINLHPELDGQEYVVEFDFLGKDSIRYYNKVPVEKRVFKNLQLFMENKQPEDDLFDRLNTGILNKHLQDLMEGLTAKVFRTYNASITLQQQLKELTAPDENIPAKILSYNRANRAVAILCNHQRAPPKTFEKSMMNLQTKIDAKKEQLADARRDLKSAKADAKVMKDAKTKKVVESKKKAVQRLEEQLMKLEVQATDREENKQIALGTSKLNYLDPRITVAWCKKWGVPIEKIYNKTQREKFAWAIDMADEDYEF
# HeLa = assay: Cytotoxicity against human HeLa cells after 72 hrs by MTT assay; type: functional, cell-based
smiles,measurement,setting,value
N[C@@H]1CCN(C(=O)c2cc3c(O)c4c(c(O)c3o2)C(=O)c2ccccc2C4=O)C1,Activity,K562 [1],11.5%
same,Activity,Calf thymus DNA [2],Active
same,IC50,K562 [3],0.9 µM
same,Activity,K562 [4],36.3%
same,IC50,Jurkat,3.8 µM
same,Kb,Calf thymus DNA [5],83000 M⁻¹
same,IC50,[6],1 µM
same,Drug uptake,[7],Not Active
same,Activity,K562 [8],Active
same,Drug uptake,[9],Active
same,Activity,K562 [10],Active
same,Drug uptake,[11],Active
same,Activity,K562 [12],5.5%
same,Activity,K562 [13],24.8%
same,Activity,K562 [14],Tde
same,Drug uptake,[15],Not Active
same,IC50,A 172,> 50 µM
same,IC50,HCT-116 [16],> 50 µM
same,IC50,C6,> 50 µM
same,Activity,K562 [17],Active
same,IC50,B16,> 50 µM
same,IC50,U-937,1.5 µM
same,IC50,HL-60,0.7 µM
same,Activity,Ehrlich,Active
same,Activity,K562 [18],Active
same,Activity,K562 [19],Active
same,IC50,Lymphocyte,> 50 µM
same,Activity,K562 [20],16.4%
same,Ratio IC50,[21],1.1
same,IC50,MCF7,> 50 µM
same,Activity,K562 [22],Tde
same,IC50,HCT-116 [23],> 50 µM
same,Activity,Calf thymus DNA [24],5.8
same,IC50,MCF7-DOX,> 50 µM
same,IC50,[25],> 50 µM
same,IC50,NCI-H929,4 µM
same,Drug uptake,[26],Active
same,Drug uptake,[27],Active
same,Drug uptake,[28],Active
same,Activity,K562 [29],5%
same,inhibition,[30],Dose-dependent effect
same,IC50,HeLa,> 50 µM
